Experiments:
Rattus norvegicus [1] = species on record: Rattus norvegicus; conditions: Liver, Microsomes
Rattus norvegicus [2] = species on record: Rattus norvegicus; conditions: Liver, Microsomes; remark: listed apart in the source
Description: Ability to undergo a P450-dependent oxidative cleavage of the C=N bond by incubating with rat (untreated) liver microsomes in the presence of NADPH

Rattus norvegicus [3] = species on record: Rattus norvegicus; assay: Ability to undergo a P450-dependent oxidative cleavage of their C=N bond, to release NO3- by incubating with rat (treated by DEX) liver microsomes in the presence of NADPH; type: functional
Rattus norvegicus [4] = species on record: Rattus norvegicus; assay: Ability to undergo a P450-dependent oxidative cleavage of their C=N bond, to release corresponding alkylketone derivative by incubating with rat (treated by DEX) liver microsomes in the presence of the NADPH; type: functional
Rattus norvegicus [5] = species on record: Rattus norvegicus; assay: Ability to undergo a P450-dependent oxidative cleavage of the C=N bond by incubating with rat (treated by DEX) liver microsomes in the presence of NADPH; type: functional

`N/C(=N\O)N1CCCCC1` was tested, and the Formation of NO2- (Rattus norvegicus [1]) was 79 nM and the Formation of NO2- (Rattus norvegicus [2]) was 1.1 nM.
`N/C(=N\O)c1ccccc1` gave a Formation of NO2- (Rattus norvegicus [1]) of 2.5 nM and a Formation of NO2- (Rattus norvegicus [2]) of 0.2 nM.
Compound `N=C(NO)Nc1ccc(Cl)cc1` has a Formation of NO3- (Rattus norvegicus [3]) of 4.4 nM, a Formation of compound (Rattus norvegicus [4]) of 17.7 nM and a Formation of NO2- (Rattus norvegicus [1]) of 18.4 nM. The Formation of NO2- (Rattus norvegicus [2]) was 0.6 nM.
With `N/C(=N/C1CCCCC1)NO` the Formation of NO2- (Rattus norvegicus [1]) was 28.6 nM and the Formation of NO2- (Rattus norvegicus [2]) was under 0.1 nM.
`CC(C)/N=C(/NO)NC(C)C` showed a Formation of NO2- (Rattus norvegicus [1]) of 62 nM and a Formation of NO2- (Rattus norvegicus [2]) of 0.9 nM.
In the case of `CCCC/C(CC)=N\O`, the Formation of NO2- (Rattus norvegicus [1]) is reported as 5.1 nM and the Formation of NO2- (Rattus norvegicus [2]) is reported as under 0.1 nM.
For `O/N=C/c1ccccc1`, the Formation of NO2- (Rattus norvegicus [1]) was 3 nM and the Formation of NO2- (Rattus norvegicus [2]) was under 0.1 nM.
`ON=C(NC1CCCCC1)NC1CCCCC1` gave a Formation of NO2- (Rattus norvegicus [1]) of 58 nM and a Formation of NO2- (Rattus norvegicus [2]) of under 0.1 nM.
Compound `O/N=C/c1ccc(Cl)cc1` has a Formation of NO2- (Rattus norvegicus [1]) of 2 nM and a Formation of NO2- (Rattus norvegicus [2]) of under 0.1 nM.
`C/C(=N\O)c1ccc(Cl)cc1` gave a Formation of NO3- (Rattus norvegicus [5]) of 1.2 nM, a Formation of compound (Rattus norvegicus [4]) of 6.4 nM and a Formation of NO2- (Rattus norvegicus [1]) of 6.2 nM. It also gave a Formation of NO2- (Rattus norvegicus [2]) of 0.1 nM.
In the case of `CCCCC/C(C)=N\O`, the Formation of NO2- (Rattus norvegicus [1]) is reported as 7 nM and the Formation of NO2- (Rattus norvegicus [2]) is reported as under 0.1 nM.
`ON=C1CCCCC1` was tested, and the Formation of NO2- (Rattus norvegicus [1]) was 3 nM and the Formation of NO2- (Rattus norvegicus [2]) was under 0.1 nM.
In the case of `N/C(=N/c1ccc(C(F)(F)F)cc1)NO`, the Formation of NO2- (Rattus norvegicus [1]) is reported as 11 nM and the Formation of NO2- (Rattus norvegicus [2]) is reported as under 0.1 nM.
`CCCCCC/C=N/O` gave a Formation of NO2- (Rattus norvegicus [1]) of 3.7 nM and a Formation of NO2- (Rattus norvegicus [2]) of 0.2 nM.
Work on `N/C(=N\O)c1ccc(Cl)cc1` yielded a Formation of NO3- (Rattus norvegicus [3]) of 1.5 nM, a Formation of compound (Rattus norvegicus [4]) of 5.1 nM and a Formation of NO2- (Rattus norvegicus [1]) of 2.6 nM. The Formation of NO2- (Rattus norvegicus [2]) was 0.7 nM.
Compound `C/C(=N\O)c1ccccc1` has a Formation of NO2- (Rattus norvegicus [1]) of 3.2 nM and a Formation of NO2- (Rattus norvegicus [2]) of under 0.1 nM.
`CCCCCCOc1ccc(C(=N)NO)cc1` was tested, and the Formation of NO3- (Rattus norvegicus [3]) was 8.1 nM, the Formation of compound (Rattus norvegicus [4]) was 12.5 nM and the Formation of NO2- (Rattus norvegicus [1]) was 6.8 nM. For the same compound, the Formation of NO2- (Rattus norvegicus [2]) was 0.6 nM.
